# Earlier results, collected in patent US20100278946A1, “HERBAL COMPOSITIONS COMPRISING PLANT MATERIAL OF ARTEMISIA HERBA-ALBA (ASSO) ASTERACEAE AND/OR EXTRACTS THEREOF” (priority 2007, published 2010).
# Where two headings read alike, the source gives them in different places.
# How the values were obtained:
# [1] = system: noncompetitive blocker site of the GABA gated chloride channel
# [2] = system: gamma-aminobutyric acid (GABA) type A receptor; conditions: rat dorsal root ganglion neurons
# [3] = 2.5 min after administration of alpha-thujone
# [4] = 30 min after administration of alpha-thujone, 40-60 mg/kg
smiles,measurement,setting,value
CN1C(=O)CN=C(c2ccccc2)c2cc(Cl)ccc21 [diazepam],survival of mice given an otherwise lethal dose of alpha-thujone,mice; intraperitoneal administration 15 min before alpha-thujone at 100 mg/kg,almost all of the mice surviving
CC(C)[C@]12CC(=O)[C@H](C)[C@H]1C2 [alpha-thujone],mode of inhibition of EBOB binding,[1],competitive inhibitor
same,potency compared with 7-hydroxy-alpha-thujone (fold more potent),[1]; [3H]EBOB binding assay,56 fold
same,time to death after tonic convulsion,mice; mice at the higher dose (60 mg/kg),≤ 1 min
same,mortality,"mice; mice, dose of 30 mg/kg",no death
same,mortality,"mice; mice, dose of 60 mg/kg",100%
same,i.p. LD50,"mice; mice, i.p.",about 45 mg/kg
same,effect on GABA-induced peak currents,[2],suppressed
same,level in the brain,[3],11 ppm
same,level in the brain,[4],0.3-1.0 ppm
CC1C(=O)CC2(C(C)(C)O)CC12 (stereo not drawn) [7-hydroxy-alpha-thujone],level in the brain,[3],29 ppm
same,level in the brain,[4],1.5-8.4 ppm
"CC1C(=O)CC2(C(C)C)CC12 (stereo not drawn) [Beta-thujone, beta-thujone]",potency relative to alpha-thujone (fold less potent),[1]; [3H]EBOB assay,2.3 fold
same,toxicity compared with alpha-thujone,"mice; mice (Rice and Wilson, 1976) and Drosophila",less toxic
